Laboratory results published in patent publication US20230013364A1, “COMBINATION THERAPIES COMPRISING ANTIBODY MOLECULES TO PD-1” (Novartis AG, priority 2015, published 2023).
Values joined by “and” are separate entries in the source; they are usually repeats but may differ in a detail not shown here. Identical values can stand only once. “Also recorded” adds a separate entry of the source. Like-named read-outs stand apart in the source and are kept apart here.

What was measured:
[1] = tested on: PD-L1 (CD274) surface expression in EBC-1 cells; assay: Flow cytometry of PD-L1 surface expression in EBC-1 cells in vitro; format: cell-based, human; details: EBC-1 cells (NSCLC with cMET amplification); 10, 100, 1000 nM; 24, 48, 72 hours; vs DMSO; FIG. 15
Procedure: PD-L1 (CD274) expression was analyzed in cancer cell lines treated with Compound A17. Cells were obtained from ATCC and cultured in vitro following ATCC directions. The cell lines used were previously characterized by the Cancer Cell Line Encyclopedia Project (http://www.broadinstitute.org/ccle/home).
Cells plated in six-well culture plates were treated with the Compound A17 at different concentrations (10 nM, 100 nM, and 1000 nM) for 24, 48 and 72 hours. Equal amount of vehicle (DMSO) was used as a control. Cells were washed with PBS and then harvested using a cell scraper.
For each reaction, 0.5-1×10^6 cells were stained with 20 μL of anti-human monoclonal PD-L1— PE antibody, clone M1H1 (BD) for 30-60 minutes at 4° C. Cells were washed twice and data was acquired using a Canto II with FACSDiva software (BD Bioscience). Data analysis was performed using FlowJo software (Tree Star). Mean fluorescence intensity (MFI) was determined by gating on single cells. Unstained cells were used as a gating control.

[2] = tested on: PD-L1 (CD274) mRNA in Hs.746.T tumor; assay: PD-L1 mRNA in Hs.746.T tumor xenograft; format: in vivo, human; details: Hs.746.T tumor (gastric cancer, cMET amplification & mutation) xenograft; FIG. 16
Procedure: (§1) TaqMan RT PCR assays were developed to detect changes of expression levels of PD-L1 (CD274) in cell lines and xenograft tumors. mRNA was isolated from frozen cell pellets or tumor fragments using the Qiagen RNeasy Mini kit. Isolated RNA was frozen at −80° C. RNA quality was checked and RNA was quantified using a 2100 Agilent Bioanalyzer following the protocol for the Agilent RNA 6000 Nano Kit. cDNA was prepared using a High Capacity RNA—to cDNA Kit (Applied Biosystems).
(§2) Real-time PCR reactions were carried out in 20 μl total volume, including 10 μl of Universal PCR master mix (Applied Biosystems), 1 μl of human PD-L1 (CD274) probe/primer set (Applied Biosystems), and 8 μl of cDNA. Each sample was run in triplicate. The amount of cDNA produced from 25-50 ng of RNA in the reverse transcription reaction was used in each PCR reaction. Due to difference in mRNA levels between PD-L1 and GAPDH, the two real-time PCR reactions were done in separate tubes using same amount of cDNA. The real-time PCR reaction was run on the C1000 Thermal Cycle (BioRad) with the cycle program as follows: a 10 minute incubation at 95° C. followed by 40 cycles of 95° C. for 15 seconds and 60° C. for 1 minute. After the reaction was complete, the PD-L1 average Ct was normalized relative to each Ct value from the GAPDH reference reaction. Each normalized logarithmic value was then converted into a linear value.

[3] = tested on: PD-L1 (CD274) mRNA in UKE-1 tumors; assay: PD-L1 mRNA in UKE-1 tumor xenograft model; format: in vivo, human; details: tumor xenograft model bearing UKE-1 (MPN line with JAK2V617F mutation); FIG. 20
Procedure: as §1, §2

[4] = tested on: PD-L1 (CD274) mRNA in H3122 cells; assay: TaqMan RT PCR of PD-L1 mRNA in H3122 cells in vitro; format: cell-based, human; details: H3122 (NSCLC with ALK translocation) in vitro; FIG. 17
Procedure: as §1, §2

[5] = tested on: PD-L1 (CD274) mRNA in LOXIMV1 tumors; assay: PD-L1 mRNA in LOXIMV1 tumor xenograft model; format: in vivo, human; details: tumor xenograft model bearing LOXIMV1 (BRAF mutant melanoma); FIG. 18
Procedure: as §1, §2

[6] = tested on: PD-L1 (CD274) mRNA in HEYA8 tumors; assay: PD-L1 mRNA in HEYA8 tumor xenograft model; format: in vivo, human; details: tumor xenograft model bearing HEYA8 (KRAF mutant ovarian cancer); FIG. 19
Procedure: as §1, §2

[7] = tested on: interferon gamma (IFN-γ) expression; format: cell-based
[8] = tested on: CD8+ T cells; assay: Proliferation of CD8+ T cells activated with CMV peptides; format: cell-based; details: percentages of CD8+ cells that passed through at least n cell divisions (n=2, 4, 6)

With `CNC(=O)c1ccc(-c2cnc3ncc(Cc4ccc5ncccc5c4)n3n2)cc1F` [Compound A17, 2-fluoro-N-methyl-4-(7-(quinolin-6-ylmethyl)imidazo[1,2-b][1,2,4]triazin-2-yl)benzamide] the “surface expression of PD-L1 (flow cytometry)” value [1] was “Significant inhibition; also recorded: significant downregulation” and the “PD-L1 expression (mRNA)” value [2] was “Inhibition”.

For `N#CC[C@H](C1CCCC1)n1cc(-c2ncnc3[nH]ccc23)cn1` [Compound A18, Ruxolitinib Phosphate], the “PD-L1 mRNA” value [3] was “Significant inhibition; also recorded: Downregulation”.

For `Cc1cc(Nc2ncc(Cl)c(Nc3ccccc3S(=O)(=O)C(C)C)n2)c(OC(C)C)cc1C1CCNCC1` [Compound A23, ceritinib], the “PD-L1 mRNA” value [4] was “Significant inhibition”.

For `COC(=O)N[C@@H](C)CNc1nccc(-c2cn(C(C)C)nc2-c2cc(Cl)cc(NS(C)(=O)=O)c2F)n1` [Compound A29, Encorafenib], the “PD-L1 mRNA” value [5] was “Significant inhibition; also recorded: Downregulation”.

With `Cn1cnc2c(F)c(Nc3ccc(Br)cc3F)c(C(=O)NOCCO)cc21` [Compound A34, Binimetinib] the “PD-L1 mRNA” value [6] was “Significant inhibition; also recorded: Downregulation”.

B1: BAP049: murine anti-PD-1 monoclonal antibody (antibody, V domains shown)
VH: QVQLQQSGSELVRPGASVKLSCKASGYTFTTYWMHWVRQRPGQGLEWIGNIYPGTGGSNFDEKFKNRTSLTVDTSSTTAYMHLASLTSEDSAVYYCTRWTTGTGAYWGQGTLVTVSA
VL: DIVMTQSPSSLTVTAGEKVTMSCKSSQSLLDSGNQKNFLTWYQQKPGQPPKLLIFWASTRESGVPDRFTGSGSVTDFTLTISSVQAEDLAVYYCQNDYSYPCTFGGGTKLEIK
With B1 the “fold increase in IFN-γ expression” value [7] was 2.3±1.1 fold and 2.8±0.8 fold, the “fold increase in IFN-γ expression” value ([7]; cells stimulated with Staphylococcal enterotoxin B (SEB) (3 pg/mL)) was 2.5±2.0 fold and the “proliferation of CD8+ T cells activated with CMV peptides” value [8] was “increase proliferation”.
